US20240174690A1, “ANNULATED 2-AMINO-3-CYANO THIOPHENES AND DERIVATIVES FOR THE TREATMENT OF CANCER” (BOEHRINGER INGELHEIM INTERNATIONAL GMBH, priority 2021, published 2024)
Converted amounts (≈) assume the structure as drawn. Like-named read-outs stand apart in the source and are kept apart here.

Experiments:
[1] = Solubility measurement (DMSO solution method), McIlvaine buffer pH 4.5 or 6.8; format: physicochemical; conditions: aqueous buffer, kinetic from dmso stock, DMSO stock diluted to 250 μM, 24 h shaking at ambient temperature
In short: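 Filtrate concentration by LC-UV, calibrated to a known-concentration reference dissolved completely in acetonitrile/water (1:1). Samples came from 250 µM final dilutions of DMSO stock in pH 4.5 or 6.8 McIlvaine buffer, shaken 24 h at ambient temperature, then filtered.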

[2] = test system: KRAS G12V-dependent Ba/F3 cells; experiment: Ba/F3 proliferation assay, KRAS G12V; format: cell-based; conditions: Mus musculus, BaF3, 72 h, AlamarBlue;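 also: proliferation IC50 in KRAS G12V-dependent Ba/F3 cells read by AlamarBlue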
In short: (§1)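 IL-3-independent Ba/F3 lines carrying retrovirally introduced KRAS G12C, G12D or G12V; puromycin withdrawn ~10 days before assay. Duplicate treatments, AlamarBlue fluorescence readout, curve-fit analysis.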

NCI-H358 cells = experiment: NCI-H358 CTG proliferation assay (120 h) (NSCLC, G12C); format: cell-based, human; conditions: Homo sapiens
In short: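 IC50 values derive from four-parameter nonlinear regression of CellTiter-Glo viability (RLU relative to DMSO wells) after 120 h of exposure. Cells were plated in RPMI-1640 + 10% FCS at 2000 per well (assay 1) or 200 per well (assay 2). Untreated cells were measured at compound addition as T0.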

[3] = Plasma protein binding assay (PPB), equilibrium dialysis, 10% FCS in PBS; format: in vitro ADME; conditions: bovine, read-out: PPB 10% FCS (% fu)
In short: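 Test compound (1-10 μmol/L) in 10% FCS in PBS was dialysed for 3-5 h at 37° C versus PBS ± dextran across a semipermeable membrane. LC-MS of both compartments after protein precipitation gave Cserum and Cbuffer, from which the unbound fraction fu was derived.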

[4] = Metabolic (microsomal) stability assay, human liver microsomes (HLM); format: in vitro ADME; conditions: predicted clearance as percent of liver blood flow, 1 μM
In short: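 LC-MS/MS tracked parent disappearance at 0, 5, 15, 30 and 60 min in NADPH-initiated incubations with 1 mg/mL human microsomal protein and 1 μM compound at 37°C, pH 7.5. First-order fits gave intrinsic clearance, which was scaled up and reported as % QH. NADPH-free controls were also run.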

[5] = test system: KRAS G12C-dependent Ba/F3 cells; experiment: Ba/F3 proliferation assay, KRAS G12C; format: cell-based; conditions: Mus musculus, BaF3, 72 h, AlamarBlue
In short: as §1

[6] = McIlvaine buffer pH 4.5, read-out: solubility pH 4.5
[7] = McIlvaine buffer pH 6.8, read-out: solubility pH 6.8
[8] = assay 2, CTG, read-out: H358 (assay 2) IC50

Compound | solubility at 24 h [1, 6] | solubility at 24 h [1, 7] | IC50 [2] | IC50 (NCI-H358 cells; [8]) | fraction unbound [3] | HLM QH [4] | IC50 [5] | IC50 (NCI-H358 cells; assay 1, CTG, read-out: H358 (assay 1) IC50)
C[C@H](Oc1nc(-c2noc3c2CCC[C@@]32CCCc3sc(N)c(C#N)c32)nc(N2C[C@H](C)NC3(CC3)C2)c1F)[C@@H]1C[C@@H](F)CN1C [II-157] | > 0.147 mg/mL | < 0.001 mg/mL | 0.258 µM | 0.151 µM | 0.03 | 69% | 0.244 µM | 
C[C@H](Oc1cc(C2=CCNCC2)nc(-c2noc3c2CCC[C@@]32CCCc3sc(N)c(C#N)c32)n1)[C@@H]1CCCN1C [II-164] | > 0.164 mg/mL | > 0.137 mg/mL | 0.133 µM | 0.04 µM | 0.54 | <24% | 0.24 µM | 
C[C@H](Oc1cc(-c2cccc(C(N)=O)c2)nc(-c2noc3c2CCC[C@@]32CCCc3sc(N)c(C#N)c32)n1)[C@@H]1CCCN1C [II-133] | 0.003 mg/mL (≈ 4.92 µM) | < 0.001 mg/mL | 0.019 µM | 0.009 µM | 0.04 | <24% | 0.033 µM | 0.074 µM
C[C@H](Oc1cc(-c2cn(C)nn2)nc(-c2onc3c2CCC[C@@]32CCCc3sc(N)c(C#N)c32)n1)[C@@H]1CCCN1C [I-16] | > 0.118 mg/mL | 0.082 mg/mL (≈ 143 µM) | 0.009 µM | 0.204 µM | 0.55 | 31% | 0.021 µM | 
C[C@H](Oc1nc(-c2noc3c2CCC[C@@]32CCCc3sc(N)c(C#N)c32)nc(N2CCNC3(CC3)C2)c1Cl)[C@@H]1C[C@@H](F)CN1C [II-156] | > 0.142 mg/mL | < 0.001 mg/mL | 0.271 µM | 0.23 µM | 0.04 | 65% | 0.353 µM | 
C[C@H](Oc1cc(-n2cc(-c3cncs3)nn2)nc(-c2noc3c2CCC[C@@]32CCCc3sc(N)c(C#N)c32)n1)[C@@H]1CCCN1C [II-125] | < 0.001 mg/mL | < 0.001 mg/mL | 0.016 µM | 0.255 µM | 0.13 | <24% | 0.017 µM | 
COc1c(O[C@@H](C)[C@@H]2CCCN2C)nc(-c2noc3c2CCC[C@@]32CCCc3sc(N)c(C#N)c32)nc1-n1ccc(C(N)=O)n1 [II-159] | 0.125 mg/mL (≈ 198 µM) | 0.125 mg/mL (≈ 198 µM) | 0.093 µM | 0.031 µM | 0.21 | 40% | 0.147 µM | 
C[C@H](Oc1cc(-n2cncn2)nc(-c2onc3c2CCC[C@@]32CCCc3sc(N)c(C#N)c32)n1)[C@@H]1CCCN1C [I-18] | > 0.121 mg/mL | 0.091 mg/mL (≈ 163 µM) | 0.008 µM | 0.179 µM | 0.61 | 48% | 0.011 µM | 
CO[C@@H]1C[C@@H]([C@H](C)Oc2cc(N3CCN(C)C4(CC4)C3)nc(-c3noc4c3CCC[C@@]43CCCc4sc(N)c(C#N)c43)n2)N(C)C1 [II-152] | > 0.132 mg/mL | 0.061 mg/mL (≈ 94.6 µM) | 1.19 µM | 0.926 µM | 0.08 | 58% | 1.29 µM | 

Now from value to compound:

solubility at 24 h [1, 6] | solubility at 24 h [1, 7] | IC50 [2] | IC50 (NCI-H358 cells; [8]) | fraction unbound [3] | HLM QH [4] | IC50 [5] | IC50 (NCI-H358 cells; assay 1, CTG, read-out: H358 (assay 1) IC50) | Compound
0.127 mg/mL (≈ 198 µM) | 0.11 mg/mL (≈ 171 µM) | 0.032 µM | 0.129 µM | 0.46 | <24% | 0.031 µM |  | CC(=O)N1CCN(c2cc(O[C@@H](C)[C@@H]3CCCN3C)nc(-c3noc4c3CCC[C@@]43CCCc4sc(N)c(C#N)c43)n2)CC12CC2 [II-178]
0.012 mg/mL (≈ 17.1 µM) | < 0.001 mg/mL | 0.001 µM | 0.001 µM | 0.06 | 63% | 0.001 µM |  | CO[C@H]1CCN(C)[C@@H]1[C@H](C)Oc1cc(-n2ccc(C(=O)N[C@H]3CCOC3)n2)nc(-c2noc3c2CCC[C@@]32CCCc3sc(N)c(C#N)c32)n1 [II-198]
0.118 mg/mL (≈ 197 µM) | 0.024 mg/mL (≈ 40.1 µM) | 0.017 µM | 0.623 µM | 0.32 | 33% | 0.026 µM |  | CC(C)N1CCCN(c2cc(-c3ccn(C)n3)nc(-c3noc4c3CCC[C@@]43CCCc4sc(N)c(C#N)c43)n2)[C@@H](C)C1 [II-170]
> 0.163 mg/mL | 0.004 mg/mL (≈ 5.82 µM) | 0.001 µM | 0.003 µM | 0.03 | 65% | 0.001 µM |  | COCCNC(=O)c1ccn(-c2cc(O[C@@H](C)[C@@H]3[C@@H](OC)CCN3C)nc(-c3noc4c3CCC[C@@]43CCCc4sc(N)c(C#N)c43)n2)n1 [II-200]
0.094 mg/mL (≈ 128 µM) | < 0.001 mg/mL | 0.001 µM | 0.002 µM | 0.01 | 75% | 0.001 µM |  | CO[C@H]1CCN(C)[C@@H]1[C@H](C)Oc1cc(-n2ccc(C(=O)N[C@@H](C)c3ccccn3)n2)nc(-c2noc3c2CCC[C@@]32CCCc3sc(N)c(C#N)c32)n1 [II-196]
> 0.152 mg/mL | 0.103 mg/mL (≈ 164 µM) | 0.008 µM | 0.019 µM | 0.16 | <24% | 0.009 µM |  | C[C@H](Oc1cc(-n2ccc(C3(O)COC3)n2)nc(-c2noc3c2CCC[C@@]32CCCc3sc(N)c(C#N)c32)n1)[C@@H]1CCCN1C [II-189]
> 0.159 mg/mL | 0.065 mg/mL (≈ 93.7 µM) | 0.004 µM | 0.005 µM | 0.04 | <24% | 0.006 µM |  | C[C@H](Oc1cc(-n2cc3ccn([C@@H]4CCOC4)c(=O)c3n2)nc(-c2noc3c2CCC[C@@]32CCCc3sc(N)c(C#N)c32)n1)[C@@H]1CCCN1C [II-203]
0.131 mg/mL (≈ 199 µM) | 0.071 mg/mL (≈ 108 µM) | 0.002 µM | 0.004 µM | 0.24 | 44% | 0.002 µM |  | COCCNC(=O)c1ccn(-c2cc(O[C@@H](C)[C@@H]3CCCN3C)nc(-c3noc4c3CCC[C@@]43CCCc4sc(N)c(C#N)c43)n2)n1 [II-195]
> 0.166 mg/mL | 0.058 mg/mL (≈ 83.6 µM) | 0.006 µM | 0.005 µM | 0.05 | <24% | 0.018 µM |  | C[C@H](Oc1cc(-n2cc3ccn([C@H]4CCOC4)c(=O)c3n2)nc(-c2noc3c2CCC[C@@]32CCCc3sc(N)c(C#N)c32)n1)[C@@H]1CCCN1C [II-202]
